Data taken from patent US6900319B2, “Thrombin inhibitors” (Abbott GmbH & Co. KG, priority 1995, dated 2005).

- melting point: 216 to 218 °C
SMILES: CC(=O)O.N=C(N)c1ccc(CNC(=O)[C@H]2CCCN2C(=O)C(O)C2CCCCC2)cc1 (stereo partly shown) [Example 3, (D)-2-Cyclohexyl-2-hydroxyacetylproline p-amidinobenzylamide Acetate]
